In publication PMC6851324, “Design and development of stapled transmembrane peptides that disrupt the activity of G-protein–coupled receptor oligomers” (The Journal of Biological Chemistry, 2019):
Read-outs that look alike come from different tables or passages of the source. Where a SMILES comes first, the peptide text is derived from it. Bridges are numbered along the chain shown (N, C = ends). [ ]: non-standard residue; d: D form. S5 = C=CCCC[C@](C)(N)C(=O)O; Nle = CCCC[C@H](N)C(=O)O

How the values were obtained:
[1] = molecular target: T1, trypsin from porcine pancreas (Sus scrofa, UniProt P00761); assay: Proteolytic stability against trypsin; assay type: in vitro ADME; conditions: for half-life at 55.5 μM: pig, isolated enzyme trypsin
T1 construct: purchased Sigma; host or cells: porcine pancreas
T1 sequence (P00761 9-231): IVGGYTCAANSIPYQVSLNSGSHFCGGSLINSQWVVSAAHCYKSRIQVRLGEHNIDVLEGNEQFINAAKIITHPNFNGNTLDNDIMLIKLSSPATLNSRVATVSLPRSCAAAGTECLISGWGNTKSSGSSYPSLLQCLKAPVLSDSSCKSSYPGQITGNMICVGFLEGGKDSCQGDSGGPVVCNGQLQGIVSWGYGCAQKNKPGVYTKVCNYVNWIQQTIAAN
Method: (§1) Figure 4. Biophysical analysis of stapled peptides. A, amino acid sequence alignment of the targeted TM regions and disrupting peptides. Cys residues are in the reduced state. Blue bridges indicate the stapled amino acid residues. […] Yields, purity, and MALDI-TOF data are shown for the stapled peptides and negative control. B, CD analysis of 30–50 μM peptides at 20 °C. For proteolytic stability studies, the peptide solution (55.5 μM for trypsin and chymotrypsin and 11.1 μM for serum) was incubated in the presence of 0.55 μg/ml trypsin from porcine pancreas (E), α-chymotrypsin (F), or mouse serum (G) at 37 °C for the indicated times (indicated on the x axis). Data are mean ± S.E. (error bars) (n = 3) percentage of intact peptide normalized to t = 0. Proteolytic half-lives and putative cleavage sites (predicted using the Expasy bioinformatics server's model with a 50% probability of cleavage) are indicated at the bottom of each panel. Positive correlation between helicity and half-life in trypsin/chymotrypsin (C) or serum (D) was determined by two-tailed Pearson's correlation test. TEXT PRINTED IN THE PICTURE: (B) TM7-TAT: Ellipticity (%): 3.4 | (B) TM6-TAT: Ellipticity (%): 18.3 | (B) TM5-TAT: Ellipticity (%): 20.9 | (B) 8: Ellipticity (%): 58.3 | (B) 9: Ellipticity (%): 46.4 | (B) 10: Ellipticity (%): 36.8 | (B) 11: Ellipticity (%): 46 | (E) TM7-TAT: Half-life (min): 21; #Cleavage sites: 8 | (E) TM6-TAT: Half-life (min): 40; #Cleavage sites: 7 | (E) TM5-TAT: Half-life (min): 33; #Cleavage sites: 8 | (E) 8: Half-life (min): 307; #Cleavage sites: 0 | (E) 9: Half-life (min): 178; #Cleavage sites: 0 | (E) 10: Half-life (min): 75; #Cleavage sites: 6 | (E) 11: Half-life (min): 84; #Cleavage sites: 0 | (F) TM7-TAT: Half-life (min): 22; #Cleavage sites: 6 | (F) TM6-TAT: Half-life (min): 32; #Cleavage sites: 7 | (F) TM5-TAT: Half-life (min): 28; #Cleavage sites: 7 | (F) 8: Half-life (min): 425; #Cleavage sites: 4 | (F) 9: Half-life (min): 198; #Cleavage sites: 3 | (F) 10: Half-life (min): 63; #Cleavage sites: 2 | (F) 11: Half-life (min): 79; #Cleavage sites: 4 | (G) TM7-TAT: Half-life (hours): 0.46 | (G) TM6-TAT: Half-life (hours): 0.55 | (G) TM5-TAT: Half-life (hours): 0.81 | (G) 8: Half-life (hours): ≥18 | (G) 9: Half-life (hours): 14.7 | (G) 10: Half-life (hours): 11.7 | (G) 11: Half-life (hours): 5.3 DOUBTS OF THE COPYIST ABOUT THIS PICTURE: Panel A table (Yield, Rt, Purity, [M+H+] calc., [M+H+] Peak Found for 7-11) left out as synthesis and mass-spectrum characterisation data; uncertain whether [M+H+] calc. should count as a molecular weight
(§2) Dose–response curves were fitted using a four-parameter logistic nonlinear regression mode. Peptide stability data were fitted using a nonlinear regression mode for dissociation kinetics. All statistical tests, curve fitting, and graphing were performed using GraphPad Prism 8 (GraphPad Software, La Jolla, CA).
To 100 μl of peptide solution (100 μM, dissolved in ammonium bicarbonate buffer, pH 7.5), 60 μl of ammonium bicarbonate buffer (pH 7.5) was added, together with 20 μl of temperature-equilibrated (37 ± 1 °C) trypsin (5 μg/ml) from porcine pancreas (Sigma, 13,000–20,000 BAEE units/mg of protein). Peptides were incubated for 15, 30, 60, 120, 240, and 480 min, and then MeOH (HPLC Grade) + 0.05% TFA was added. The samples were then centrifuged (15,000 rpm), and the supernatant was analyzed, using Fmoc-Gly (10 μl, 0.2 mM) as an internal standard. The digestion at each time point was repeated three times to give the average values along with S.D. The amount of intact peptide that remained in the mixture was quantified by RP-HPLC. The experiment was repeated twice on different days.

[2] = molecular target: T2, α-chymotrypsin from bovine pancreas (Bos taurus, UniProt P00766, DEL14-15/DEL147-148); assay: Proteolytic stability against chymotrypsin; assay type: in vitro ADME; conditions: for half-life at 55.5 μM: cattle, isolated enzyme chymotrypsin
T2 construct: purchased Sigma Type II; host or cells: bovine pancreas
Method: as §1, §2
To 100 μl of peptide solution (100 μM, dissolved in ammonium bicarbonate buffer, pH 7.5), 60 μl of ammonium bicarbonate buffer (pH 7.5) was added, together with 20 μl of temperature-equilibrated (37 ± 1 °C) α-chymotrypsin (5 μg/ml) from bovine pancreas (Sigma, Type II, activity > 40 units/mg protein). Peptides were incubated for 15, 30, 60, 120, 240, and 480 min, and then MeOH (HPLC grade) + 0.05% TFA was added. The samples were then centrifuged (15,000 rpm), and supernatant was analyzed in a similar manner as described above. The experiment was repeated twice on different days.

5-HT2AR–CB1R heteromers = molecular target: T3, 5-HT2AR–CB1R heteromers (Homo sapiens, UniProt P28223); assay: NanoBiT BiLC peptide screening assay (LgBiT–CB1R + SmBiT–5-HT2AR); assay type: cell-based; conditions: HEK293 cells transiently expressing LgBiT–CB1R and SmBiT–5-HT2AR, preincubated 1 h with 4 μM peptide, luminescence normalized to vehicle, n ≥ 5
T3 construct: expressed in transfected cells; host or cells: HEK293 (ATCC CRL-1573), transient reverse transfection
T3 sequence (P28223 2-471, one chain of several): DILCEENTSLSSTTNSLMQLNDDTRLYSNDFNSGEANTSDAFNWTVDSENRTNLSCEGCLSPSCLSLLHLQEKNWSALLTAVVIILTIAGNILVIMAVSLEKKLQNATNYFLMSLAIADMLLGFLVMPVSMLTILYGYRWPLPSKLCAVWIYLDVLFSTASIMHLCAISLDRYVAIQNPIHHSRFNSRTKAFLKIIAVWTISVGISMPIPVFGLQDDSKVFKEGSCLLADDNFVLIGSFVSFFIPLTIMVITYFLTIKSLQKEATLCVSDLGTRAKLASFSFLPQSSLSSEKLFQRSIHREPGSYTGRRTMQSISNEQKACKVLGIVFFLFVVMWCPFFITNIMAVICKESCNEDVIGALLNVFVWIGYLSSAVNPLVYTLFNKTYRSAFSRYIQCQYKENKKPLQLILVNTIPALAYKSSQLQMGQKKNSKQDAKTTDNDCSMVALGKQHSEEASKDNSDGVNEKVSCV
Method: Figure 5. Identification of a small-stapled TM peptide disrupting 5-HT2AR–CB1R heteromers. A, schematic representation of the NanoBiT assay using N-terminally labeled constructs. In B, HEK293 cells transiently expressing the LgBT–CB1R and SmBiT–5-HT2AR complementary pairs were preincubated for 1 h at 37 °C with the indicated peptides (4 μM) or vehicle prior to luminescence recording. Data are mean RLU ± S.E. (error bars) (n ≥ 5) percentage of luminescence normalized to vehicle-treated cells. Statistical significance was evaluated by one-way ANOVA followed by Bonferroni post hoc tests, indicating significant differences over vehicle-treated cells (***, p ≤ 0.001; ****, p ≤ 0.0001) and for peptide 10 over its related peptides (####, p ≤ 0.0001). Peptide 10 potency (C) was evaluated as in A over increasing peptide concentrations (bottom) (n = 3). Alternatively, to assess the kinetics of the peptide 10–driven heteromer disruption (D), prior to the administration of the peptide, the cells were preincubated with substrate, and the luminescence was recorded over the following 30 min. Data are mean RLU ± S.E. (n ≥ 3) percentage of luminescence normalized to vehicle-treated cells.
To assess GPCR protein–protein interactions with the NanoBiT technology, HEK293 cells (50,000 cells/well) were seeded in poly-D-lysine–coated white clear bottom 96-well plates and reverse-transfected (see above) with the plasmids encoding the complementary NanoBiT hemiprotein fragments. For orientation screenings, cells were transfected with two different concentrations (50 and 100 ng/well) of each receptor alone or in combination with the investigated partner (see figure legends) in the presence of empty vector (pcDNA3.1(+)) to normalize the total amount of DNA/well. For studies in the presence of increasing nontagged receptor competitors, 100 ng of each receptor pair (CB1R LgBiT + CB1R SmBiT, 5-HT2AR LgBiT + 5-HT2AR SmBiT, and 5-HT2AR LgBiT + CB1R SmBiT) were co-transfected with increasing concentrations of the different nontagged constructs (from 0 to 300 ng/well), and the total amounts of DNA/well were normalized with empty vector (pcDNA3.1(+)). For the screening of stapled peptides, 50 ng/well of both LgBiT CB1R and SmBiT 5-HT2AR were reverse-transfected as detailed previously. 24 h post- transfection, the cell culture medium was removed, and the cells were starved in FBS-free DMEM for 4 h at 37 °C in a 5% CO2 humidified atmosphere. The cell culture medium was replaced by 100 μl of NanoBiT assay buffer (same as for cAMP measurements), and the plates were pre-equilibrated for 1 h at RT in the dark. When peptide pretreatment was required, peptides were added over this pre-equilibration step, except when studying inhibition kinetics, when the peptides were administered immediately after the baseline luminescence recording. 25 μl/well of a 5× solution of the Nano-Glo® live cell reagent containing the cell-permeable furimazine substrate dissolved in Nano-Glo® LCS dilution buffer were added, and the luminescence was immediately monitored in CLARIOstar® Multimode Plate Reader (BMG Labtech) with no lens (1-s integration time/well for 1 h every minute).
as §2

Stability in mouse serum = assay type: in vitro ADME; conditions: 11.1 μM peptide, fresh nonsterile mouse serum (200 μl serum + 25 μl peptide solution, pH 7.5 buffer with 10% DMSO), 37 °C, quench 15% TCA in acetonitrile, HPLC, n = 3; read-out: Half-life (hours), mouse serum (converted)
Method: as §1, §2
To 200 μl of fresh nonsterile mouse serum was added 25 μl of peptide solution (100 μM, dissolved in ammonium bicarbonate buffer, pH 7.5, containing 10% DMSO), and the mixture was incubated at 37 °C. At the specified time, an aliquot of incubation mixture was withdrawn and quenched by the addition of an equal volume of 15% TCA in acetonitrile to precipitate out serum proteins over ice for 30 min. The mixture was then centrifuged at 13,500 rpm for 10 min, and the supernatant was collected and analyzed by HPLC in a similar manner as described previously. The experiment was repeated twice on different days.

SMILES | half-life at 55.5 μM ([1]; pH 7.5, Half-life (min), trypsin) | half-life at 55.5 μM ([2]; pH 7.5) | half-life in chymotrypsin as stated in text ([2]; pH 7.5) | effect on NanoBiT luminescence (heteromer disruption) (5-HT2AR–CB1R heteromers) | half-life at 55.5 μM ([1]; 55.5 μM peptide, 0.55 μg/ml trypsin from porcine pancreas, ammonium bicarbonate buffer pH 7.5, 37 °C, 15–480 min, intact peptide by RP-HPLC (Fmoc-Gly internal standard), n = 3, nonlinear regression fit, read-out: Half-life (min), trypsin) | enhancement in trypsin resistance (half-life) over control peptides ([1]; versus TM7-TAT, TM6-TAT and TM5-TAT control peptides, trypsin 0.55 μg/ml) | half-life at 55.5 μM ([2]; 55.5 μM peptide, 0.55 μg/ml α-chymotrypsin from bovine pancreas, ammonium bicarbonate buffer pH 7.5, 37 °C, 15–480 min, intact peptide by RP-HPLC, n = 3, nonlinear regression fit, read-out: Half-life (min), α-chymotrypsin) | chymotrypsin resistance improvement over full-length TM-TAT peptides ([2]; versus full-length TM7-TAT, TM6-TAT and TM5-TAT) | half-life at 11.1 μM (Stability in mouse serum)
CCCC[C@@H]1NC(=O)[C@H](Cc2ccc(O)cc2)NC(=O)[C@@](C)(NC(=O)[C@H](Cc2ccc(O)cc2)NC(=O)[C@@H](N)C(C)C)CCC/C=C\CCC[C@@](C)(C(=O)N[C@H](C(=O)N[C@@H](CC(C)C)C(=O)N[C@@H](Cc2c[nH]c3ccccc23)C(N)=O)[C@@H](C)CC)NC1=O [Peptide 9] (H-VY[S5]Y[Nle][S5]ILW-NH2; staple (Z) 3-6) | 178 min | 198 min | 5 to 6 h | neither the version lacking the TAT amino acid sequence, compound 9, nor the nonstaple, compound 11, peptides induced any change | – | – | – | – | –
CCCC[C@@H]1NC(=O)[C@H](Cc2ccc(O)cc2)NC(=O)[C@@](C)(NC(=O)[C@H](Cc2ccc(O)cc2)NC(=O)[C@@H](N)C(C)C)CCCC=CCCC[C@@](C)(C(=O)N[C@@H](CC(C)C)C(=O)N[C@@H](Cc2c[nH]c3ccccc23)C(=O)NCC(=O)N[C@@H](CCCNC(=N)N)C(=O)N[C@@H](CCCCN)C(=O)N[C@@H](CCCCN)C(=O)N[C@@H](CCCNC(=N)N)C(=O)N[C@@H](CCCNC(=N)N)C(=O)N[C@@H](CCC(N)=O)C(=O)N[C@@H](CCCNC(=N)N)C(=O)N[C@@H](CCCNC(=N)N)C(=O)N[C@@H](CCCNC(=N)N)C(N)=O)NC(=O)[C@H](Cc2ccc(O)cc2)NC1=O [Peptide 10] (H-VY[S5]Y[Nle]Y[S5]LWGRKKRRQRRR-NH2; staple 3-7) | – | – | – | – | 75 min | 2–3 fold | 63 min | ~2 fold | 11.7 h
